Tests used:
Assay type in all cases: in vivo
[1] = tested on: giant foxtail (Setaria faberi); test: Test G Pre-Emergence Protocol; conditions: Setaria faberi, pre-emergence, 312 h, evaluated after 13 days; for pest or weed control at 15.625 g/ha: 15.625 g ai/ha; for pest or weed control at 15.625 g/ha / pest or weed control at 250 g/ha: read-out: Foxtail, Giant damage rating (100=total damage to plant; 0=no damage to plant); for pest or weed control at 62.5 g/ha: 62.5 g ai/ha, 100=total damage to plant, 0=no damage to plant, read-out: Foxtail, Giant damage rating; for pest or weed control at 250 g/ha: 250 g ai/ha
Outline: (§1)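 Herbicidal effect was rated 13 days post-application on a scale where 100 equals total damage. Spraying took place the day after sowing, using 15.625, 62.5 or 250 g/ha of compound in a 50:50 acetone/water solution with 0.5% Tween 20.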

[2] = tested on: corn (Zea mays); test: Test G Pre-Emergence Protocol; conditions: Zea mays, pre-emergence, 312 h, evaluated after 13 days; for plant injury at 15.625 g/ha: 15.625 g ai/ha; for plant injury at 15.625 g/ha / plant injury at 250 g/ha: read-out: Corn damage rating (100=total damage to plant; 0=no damage to plant); for plant injury at 62.5 g/ha: 62.5 g ai/ha, 100=total damage to plant, 0=no damage to plant, read-out: Corn damage rating; for plant injury at 250 g/ha: 250 g ai/ha
Outline: as §1

[3] = tested on: ivy-leaved morning glory (Ipomoea hederacea); test: Test G Pre-Emergence Protocol; conditions: Ipomoea, pre-emergence, 312 h, evaluated after 13 days; for pest or weed control at 15.625 g/ha: 15.625 g ai/ha; for pest or weed control at 15.625 g/ha / pest or weed control at 250 g/ha: read-out: Morningglory, Ivy-leaved damage rating (100=total damage to plant; 0=no damage to plant); for pest or weed control at 250 g/ha: 250 g ai/ha
Outline: as §1

[4] = tested on: barnyardgrass (Echinochloa crus-galli); test: Test G Pre-Emergence Protocol; conditions: Echinochloa crus-galli, pre-emergence, 312 h, evaluated after 13 days; for pest or weed control at 15.625 g/ha: 15.625 g ai/ha; for pest or weed control at 15.625 g/ha / pest or weed control at 250 g/ha: read-out: Barnyardgrass damage rating (100=total damage to plant; 0=no damage to plant); for pest or weed control at 62.5 g/ha: 62.5 g ai/ha, 100=total damage to plant, 0=no damage to plant, read-out: Barnyardgrass damage rating; for pest or weed control at 250 g/ha: 250 g ai/ha
Outline: as §1

[5] = tested on: velvetleaf (Abutilon theophrasti); test: Test G Pre-Emergence Protocol; conditions: Abutilon theophrasti, pre-emergence, 312 h, evaluated after 13 days; for pest or weed control at 15.625 g/ha: 15.625 g ai/ha; for pest or weed control at 15.625 g/ha / pest or weed control at 250 g/ha: read-out: Velvetleaf damage rating (100=total damage to plant; 0=no damage to plant); for pest or weed control at 62.5 g/ha: 62.5 g ai/ha, 100=total damage to plant, 0=no damage to plant, read-out: Velvetleaf damage rating; for pest or weed control at 250 g/ha: 250 g ai/ha
Outline: as §1

[6] = tested on: redroot pigweed (Amaranthus retroflexus); test: Test G Pre-Emergence Protocol; conditions: Amaranthus retroflexus, pre-emergence, 312 h, evaluated after 13 days; for pest or weed control at 15.625 g/ha: 15.625 g ai/ha; for pest or weed control at 15.625 g/ha / pest or weed control at 250 g/ha: read-out: Pigweed, Redroot damage rating (100=total damage to plant; 0=no damage to plant); for pest or weed control at 62.5 g/ha: 62.5 g ai/ha, 100=total damage to plant, 0=no damage to plant, read-out: Pigweed, Redroot damage rating; for pest or weed control at 250 g/ha: 250 g ai/ha
Outline: as §1

[7] = tested on: giant foxtail (Setaria faberi); test: Test G Post-Emergence Protocol; conditions: Setaria faberi, post-emergence, 312 h, read-out: Foxtail, Giant damage rating; for pest or weed control at 15.625 g/ha: 15.625 g ai/ha, evaluated after 13 days (100=total damage to plant; 0=no damage to plant); for pest or weed control at 62.5 g/ha: 62.5 g ai/ha
Outline: (§2)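 A glasshouse post-emergence test: 8-day-old plants sprayed at 15.625, 62.5 or 250 g/ha, then grown at 24/16 °C day/night with 14 h light and 65% humidity. Damage rated 13 days later, 0–100.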

[8] = tested on: corn (Zea mays); test: Test G Post-Emergence Protocol; conditions: Zea mays, post-emergence, 312 h, read-out: Corn damage rating; for plant injury at 15.625 g/ha: 15.625 g ai/ha, evaluated after 13 days (100=total damage to plant; 0=no damage to plant); for plant injury at 62.5 g/ha: 62.5 g ai/ha; for plant injury at 62.5 g/ha / plant injury at 250 g/ha: evaluated after 13 days, 100=total damage to plant, 0=no damage to plant; for plant injury at 250 g/ha: 250 g ai/ha
Outline: as §2

[9] = tested on: ivy-leaved morning glory (Ipomoea hederacea); test: Test G Post-Emergence Protocol; conditions: Ipomoea, post-emergence, 312 h, read-out: Morningglory, Ivy-leaved damage rating; for pest or weed control at 15.625 g/ha: 15.625 g ai/ha, evaluated after 13 days (100=total damage to plant; 0=no damage to plant); for pest or weed control at 62.5 g/ha: 62.5 g ai/ha; for pest or weed control at 62.5 g/ha / pest or weed control at 250 g/ha: evaluated after 13 days, 100=total damage to plant, 0=no damage to plant; for pest or weed control at 250 g/ha: 250 g ai/ha
Outline: as §2

[10] = tested on: barnyardgrass (Echinochloa crus-galli); test: Test G Post-Emergence Protocol; conditions: Echinochloa crus-galli, post-emergence, 312 h, read-out: Barnyardgrass damage rating; for pest or weed control at 15.625 g/ha: 15.625 g ai/ha, evaluated after 13 days (100=total damage to plant; 0=no damage to plant); for pest or weed control at 62.5 g/ha: 62.5 g ai/ha; for pest or weed control at 62.5 g/ha / pest or weed control at 250 g/ha: evaluated after 13 days, 100=total damage to plant, 0=no damage to plant; for pest or weed control at 250 g/ha: 250 g ai/ha
Outline: as §2

[11] = tested on: velvetleaf (Abutilon theophrasti); test: Test G Post-Emergence Protocol; conditions: Abutilon theophrasti, post-emergence, 312 h, read-out: Velvetleaf damage rating; for pest or weed control at 15.625 g/ha: 15.625 g ai/ha, evaluated after 13 days (100=total damage to plant; 0=no damage to plant); for pest or weed control at 62.5 g/ha: 62.5 g ai/ha; for pest or weed control at 62.5 g/ha / pest or weed control at 250 g/ha: evaluated after 13 days, 100=total damage to plant, 0=no damage to plant; for pest or weed control at 250 g/ha: 250 g ai/ha
Outline: as §2

[12] = tested on: redroot pigweed (Amaranthus retroflexus); test: Test G Post-Emergence Protocol; conditions: Amaranthus retroflexus, post-emergence, 312 h, read-out: Pigweed, Redroot damage rating; for pest or weed control at 15.625 g/ha: 15.625 g ai/ha, evaluated after 13 days (100=total damage to plant; 0=no damage to plant); for pest or weed control at 62.5 g/ha: 62.5 g ai/ha; for pest or weed control at 62.5 g/ha / pest or weed control at 250 g/ha: evaluated after 13 days, 100=total damage to plant, 0=no damage to plant; for pest or weed control at 250 g/ha: 250 g ai/ha
Outline: as §2

[13] = evaluated after 13 days, 100=total damage to plant, 0=no damage to plant

| SMILES | pest or weed control at 15.625 g/ha [1] [%] | pest or weed control at 62.5 g/ha [1] [%] | pest or weed control at 250 g/ha [1] [%] | plant injury at 15.625 g/ha [2] [%] | plant injury at 62.5 g/ha [2] [%] | plant injury at 250 g/ha [2] [%] | pest or weed control at 15.625 g/ha [3] [%] | pest or weed control at 250 g/ha [3] [%] | pest or weed control at 15.625 g/ha [4] [%] | pest or weed control at 62.5 g/ha [4] [%] | pest or weed control at 250 g/ha [4] [%] | pest or weed control at 15.625 g/ha [5] [%] | pest or weed control at 62.5 g/ha [5] [%] | pest or weed control at 250 g/ha [5] [%] | pest or weed control at 15.625 g/ha [6] [%] | pest or weed control at 62.5 g/ha [6] [%] | pest or weed control at 250 g/ha [6] [%] | pest or weed control at 15.625 g/ha [7] [%] | pest or weed control at 62.5 g/ha [7, 13] [%] | plant injury at 15.625 g/ha [8] [%] | other results |
| --- | --- | --- | --- | --- | --- | --- | --- | --- | --- | --- | --- | --- | --- | --- | --- | --- | --- | --- | --- | --- | --- |
| CON1C[C@H](c2ccc(F)c(F)c2)[C@@H](C(=O)Nc2ccc(F)c(F)c2F)C1=O [Compound 1679] | 90 | 90 | 90 | 0 | 0 | 60 | 0 | 10 | 50 | 80 | 90 | 10 | 10 | 60 | 10 | 10 | 30 | 80 | 80 | 0 | pest or weed control at 250 g/ha ([7]; 250 g ai/ha, evaluated after 13 days, 100=total damage to plant, 0=no damage to plant): 80%; plant injury at 62.5 g/ha [8]: 0%; plant injury at 250 g/ha [8]: 60%; pest or weed control at 15.625 g/ha [9]: 0%; pest or weed control at 62.5 g/ha [9]: 50%; pest or weed control at 250 g/ha [9]: 40%; pest or weed control at 15.625 g/ha [10]: 40%; pest or weed control at 62.5 g/ha [10]: 80%; pest or weed control at 250 g/ha [10]: 90%; pest or weed control at 15.625 g/ha [11]: 0%; pest or weed control at 62.5 g/ha [11]: 20%; pest or weed control at 250 g/ha [11]: 40%; pest or weed control at 15.625 g/ha [12]: 0%; pest or weed control at 62.5 g/ha [12]: 30%; pest or weed control at 250 g/ha [12]: 50% |
| CN1CC(c2cc(C#N)cc(C(F)(F)F)c2)C(C(=O)Nc2cccc(F)c2F)C1=O (stereo not shown) [Compound 1684] | 0 | 0 | 0 | 0 | 0 | 10 | 0 | 0 | 0 | 0 | 0 | 0 | 0 | 0 | 0 | 0 | 10 | 0 | 0 | 0 | pest or weed control at 62.5 g/ha ([3]; 62.5 g ai/ha, 100=total damage to plant, 0=no damage to plant, read-out: Morningglory, Ivy-leaved damage rating): 0%; plant injury at 62.5 g/ha [8]: 0%; plant injury at 250 g/ha [8]: 0%; pest or weed control at 15.625 g/ha [9]: 0%; pest or weed control at 62.5 g/ha [9]: 0%; pest or weed control at 250 g/ha [9]: 0%; pest or weed control at 15.625 g/ha [10]: 0%; pest or weed control at 62.5 g/ha [10]: 0%; pest or weed control at 250 g/ha [10]: 0%; pest or weed control at 15.625 g/ha [11]: 0%; pest or weed control at 62.5 g/ha [11]: 0%; pest or weed control at 250 g/ha [11]: 0%; pest or weed control at 15.625 g/ha [12]: 0%; pest or weed control at 62.5 g/ha [12]: 0%; pest or weed control at 250 g/ha [12]: 0% |

— patent US12077503B2, “Substituted cyclic amides and their use as herbicides” (FMC CORPORATION, priority 2015, dated 2024)
